From patent publication US8143243B2, “Compounds for the treatment of hepatitis C” (Bristol-Myers Squibb Company, priority 2007, dated 2012)
Like-named read-outs stand apart in the source and are kept apart here.

What was measured:
HCV NS5B = biological target: T1, HCV NS5B (Hepatitis C virus genotype 1b, UniProt Q9WMX2); assay: HCV NS5B RdRp enzyme assay (standard / modified); type: biochemical; details: HCV RdRp genotype 1b enzyme; read-out: IC50
T1 construct: The protein was expressed with an 18 amino acid C-terminal truncation to enhance the solubility; made in house; host or cells: E. coli BL21 (DE3)
Summary of the method: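 SPA detection of 3H-UTP (0.29 μM) incorporation by C-terminally truncated (18 aa) genotype 1b NS5B from E. coli, on polyA/biotin-oligo-dT12 at 30° C, pH 7.5 Hepes, 2% DMSO. Modified format: 14 nM enzyme, 0.2 nM template, 20 nM primer prebound to beads, 4 h; standard: 28 nM, 6 nM, 180 nM free primer, 60 min. Seven-point IC50 fit.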

HCV replicon cells = assay: HCV replicon FRET / luciferase assay; type: cell-based; details: HCV replicon cells, FRET or luciferase readout, read-out: EC50
Summary of the method: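 Readout was NS3 protease cleavage of an EDANS/DABCYL FRET peptide (20 μM final) in lysed HCV replicon cells, or Renilla luciferase in reporter replicons. Background came from wells with the highest level of control protease inhibitor. EC50 marked the concentration giving 50% signal reduction.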

T1 sequence (Q9WMX2 2420-2992): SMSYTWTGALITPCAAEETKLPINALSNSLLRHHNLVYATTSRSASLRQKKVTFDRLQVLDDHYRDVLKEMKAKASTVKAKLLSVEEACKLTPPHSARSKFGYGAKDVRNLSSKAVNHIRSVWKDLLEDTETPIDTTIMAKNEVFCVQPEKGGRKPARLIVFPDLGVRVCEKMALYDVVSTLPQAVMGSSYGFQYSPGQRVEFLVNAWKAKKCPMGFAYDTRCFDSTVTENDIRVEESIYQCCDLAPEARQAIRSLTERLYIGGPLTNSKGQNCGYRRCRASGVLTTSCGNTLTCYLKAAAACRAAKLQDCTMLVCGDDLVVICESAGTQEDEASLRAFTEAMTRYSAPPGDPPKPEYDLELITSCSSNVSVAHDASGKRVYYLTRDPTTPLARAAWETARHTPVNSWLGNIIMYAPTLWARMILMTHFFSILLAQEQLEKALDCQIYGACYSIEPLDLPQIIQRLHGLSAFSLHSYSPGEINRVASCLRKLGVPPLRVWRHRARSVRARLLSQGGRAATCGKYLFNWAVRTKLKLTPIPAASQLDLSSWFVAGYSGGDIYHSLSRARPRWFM

Structure (SMILES)	IC50 (HCV NS5B) [nM]	EC50 (HCV replicon cells; Hepatitis C virus) [nM]	EC50 (HCV replicon cells) [nM]
COc1ccc2c(c1)C=C(c1c(C(=O)N3CCN(C(C)C)CC3)cnn1C)Cn1c-2c(C2CCCCC2)c2ccc(C(=O)NS(=O)(=O)N3CCOCC3)cc21	1 to 500	1 to 500	–
COc1ccc2c(c1)C=C(c1c(C(=O)N3CCCC(N(C)C)C3)cnn1C)Cn1c-2c(C2CCCCC2)c2ccc(C(=O)NS(=O)(=O)N3CCOCC3)cc21 (stereo not drawn)	1 to 500	1 to 500	–
COc1ccc2c(c1)C=C(c1c(C(=O)N3CCCC4(CCNC4=O)C3)cnn1C)Cn1c-2c(C2CCCCC2)c2ccc(C(=O)NS(=O)(=O)N3CCOCC3)cc21 (stereo not drawn)	1 to 500	1 to 500	–
COc1ccc2c(c1)C=C(c1c(C(=O)N3CCCC3CN3CCCCC3)cnn1C)Cn1c-2c(C2CCCCC2)c2ccc(C(=O)NS(=O)(=O)N3CCOCC3)cc21 (stereo not drawn)	1 to 500	1 to 500	–
CCOC(=O)N1CCN(C(=O)c2cnn(C)c2C2=Cc3cc(OC)ccc3-c3c(C4CCCCC4)c4ccc(C(=O)NS(=O)(=O)N5CCOCC5)cc4n3C2)CC1	1 to 500	1 to 500	–
COc1ccc2c(c1)C=C(c1c(C(=O)N3CCN(C)CC3)c(C)nn1C(C)C)Cn1c-2c(C2CCCCC2)c2ccc(C(=O)NS(=O)(=O)C(C)C)cc21	1 to 500	1 to 500	–
COc1ccc2c(c1)C=C(c1c(C(=O)N3C[C@@H](C)N(C)[C@@H](C)C3)c(C)nn1C(C)C)Cn1c-2c(C2CCCCC2)c2ccc(C(=O)NS(=O)(=O)C(C)C)cc21	1 to 500	1 to 500	–
CCn1nc(C)c(C(=O)OC)c1C1=Cc2cc(OC)ccc2-c2c(C3CCCCC3)c3ccc(C(=O)O)cc3n2C1	> 500	> 500	–
CCn1nc(C)c(C(=O)N2CC3CCC(C2)O3)c1C1=Cc2cc(OC)ccc2-c2c(C3CCCCC3)c3ccc(C(=O)NS(=O)(=O)C(C)C)cc3n2C1	1 to 500	1 to 500	–
COc1ccc2c(c1)C=C(c1c(C(=O)N3CC4CCC(C3)O4)c(C)nn1C)Cn1c-2c(C2CCCCC2)c2ccc(C(=O)NS(=O)(=O)C(C)C)cc21	1 to 500	1 to 500	–
COc1ccc2c(c1)C=C(c1c(C(=O)N3C[C@@H](C)N(C)[C@@H](C)C3)c(C)nn1C)Cn1c-2c(C2CCCCC2)c2ccc(C(=O)NS(=O)(=O)C(C)C)cc21	1 to 500	1 to 500	–
CCn1nc(C)c(C2=Cc3cc(OC)ccc3-c3c(C4CCCCC4)c4ccc(C(=O)NS(=O)(=O)C(C)C)cc4n3C2)c1C(=O)N1C[C@@H](C)O[C@@H](C)C1	1 to 500	1 to 500	–
CCn1ncc(C(=O)N2CCO[C@@H](COC)C2)c1C1=Cc2cc(OC)ccc2-c2c(C3CCCCC3)c3ccc(C(=O)NS(=O)(=O)C(C)C)cc3n2C1	1 to 500	1 to 500	–
CCn1ncc(C(=O)N2C[C@@H]3C[C@H]2CO3)c1C1=Cc2cc(OC)ccc2-c2c(C3CCCCC3)c3ccc(C(=O)NS(=O)(=O)C(C)C)cc3n2C1	1 to 500	1 to 500	–
CCN1C[C@@H]2C[C@H]1CN2C(=O)c1cnn(CC)c1C1=Cc2cc(OC)ccc2-c2c(C3CCCCC3)c3ccc(C(=O)NS(=O)(=O)C(C)C)cc3n2C1	1 to 500	1 to 500	–
COc1ccc2c(c1)C=C(c1c(C(=O)N3C[C@@H]4C[C@H]3CO4)cnn1CC(F)(F)F)Cn1c-2c(C2CCCCC2)c2ccc(C(=O)NS(=O)(=O)C(C)C)cc21	1 to 500	1 to 500	–
COc1ccc2c(c1)C=C(c1c(C(=O)N3CC4CCC(C3)O4)cnn1C(C)C)Cn1c-2c(C2CCCCC2)c2ccc(C(=O)NS(=O)(=O)C(C)C)cc21	1 to 500	1 to 500	–
COc1ccc2c(c1)C=C(c1c(C(=O)N3C[C@@H]4C[C@H]3CO4)cnn1C(C)C)Cn1c-2c(C2CCCCC2)c2ccc(C(=O)NS(=O)(=O)C(C)C)cc21	1 to 500	1 to 500	–
COc1ccc2c(c1)C=C(c1c(C(=O)N3C[C@@H]4C[C@H]3CO4)c(C)nn1C(C)C)Cn1c-2c(C2CCCCC2)c2ccc(C(=O)NS(=O)(=O)C(C)C)cc21	1 to 500	1 to 500	–
CCN1C[C@@H]2C[C@H]1CN2C(=O)c1c(C)nn(C(C)C)c1C1=Cc2cc(OC)ccc2-c2c(C3CCCCC3)c3ccc(C(=O)NS(=O)(=O)C(C)C)cc3n2C1	1 to 500	1 to 500	–
CCn1nc(C)c(C(=O)N2C[C@@H]3C[C@H]2CO3)c1C1=Cc2cc(OC)ccc2-c2c(C3CCCCC3)c3ccc(C(=O)NS(=O)(=O)C(C)C)cc3n2C1	1 to 500	1 to 500	–
CCN1C[C@@H]2C[C@H]1CN2C(=O)c1c(C)nn(CC)c1C1=Cc2cc(OC)ccc2-c2c(C3CCCCC3)c3ccc(C(=O)NS(=O)(=O)C(C)C)cc3n2C1	1 to 500	1 to 500	–
CCn1nc(C)c(C(=O)N2C[C@@H](C)O[C@@H](C)C2)c1C1=Cc2cc(OC)ccc2-c2c(C3CCCCC3)c3ccc(C(=O)NS(=O)(=O)C(C)C)cc3n2C1 [drawing 580]	1 to 500	1 to 500	–
CCn1nc(C)c(C(=O)N2C[C@@H](C)O[C@@H](C)C2)c1C1=Cc2cc(OC)ccc2-c2c(C3CCCCC3)c3ccc(C(=O)NS(=O)(=O)C(C)C)cc3n2C1 [drawing 627]	1 to 500	–	1 to 500
